Measurements from publication PMC9785606, “Design and Synthesis of Novel Phenylahistin Derivatives Based on Co-Crystal Structures as Potent Microtubule Inhibitors for Anti-Cancer Therapy” (Marine Drugs, 2022).
Marks after values point to notes of the source that are not given here.

Test system: H22 hepatoma carcinoma cells transplanted tumor
Experiment: H22 subcutaneous transplanted tumor model, intravenous administration
Conditions: for Tumor Volume (D15): 14 consecutive days; for Tumor Volume (D1): D1 (baseline), mean ± SD; for Tumor Weight: excised at end of administration; for IR (tumor weight inhibition rate): IR = (1 − TWt/TWc) × 100%
Protocol: The anticancer effect of the compound 15p was further evaluated against H22 tumor-bearing mice models by intravenous injection at doses of 2 mg/kg, or 4 mg/kg, two or three times a week, and for 14 consecutive days. Docetaxel (10 mg/kg), plinabulin (4 mg/kg), and cyclophosphamide (20 mg/kg) were used as the positive controls.
Balb/c mice (4–6 weeks old, 16–18 g) were purchased from Shanghai Sippr-BK laboratory animal Co. Ltd. The animal study protocol was approved by Institutional Review Board of Science and Technology Division of Linyi University (review opinion on behalf of the Ethics Committee) (The protocol code is LYU20220107, provided on 10 March 2022). H22 cells were grown in RPMI-1640 midium supplemented with 10% fetal bovine serum, and maintained at 37 °C in humidified 5% CO2. Cells were passaged when they reached 70–80% confluence. Viable H22 cells (1 × 10^7 cells/0.2 ml 0.9% sodium chloride) were injected into the peritoneal cavity of BALB/C mice to trigger ascitic cell growth. Later, cells were harvested and suspended. H22 cancer cells (2 × 10^7 cells/0.1 ml 0.9% sodium chloride cells) were subcutaneously injected into the right flank of each mouse. After implantation, the tumor size was measured with an electronic caliper twice a week, and the tumor volume was calculated according to the following formula: tumor volume (mm^3) = 0.5 × length × width^2. When the tumor volume reached about 130 mm^3, the xenograft tumor-bearing BALB/C mice were randomly placed into six groups at 10 mice per group: vehicle, plinabulin (4 mg/kg), 15p ([…]), 15p ([…]), cyclophosphamide (20 mg/kg) and docetaxel (10 mg/kg) groups. Docetaxel, plinabulin, and cyclophosphamide were chosen as positive control drug. The reference compound docetaxel and cyclophosphamide were completely dissolved in isotonic saline. […] The solution of compound 15p was diluted with the concentrated solution and in isotonic saline at a calculated ratio. The solutions of plinabulin were made up according to similar methods. The mice received intravenous administration (iv) every two or three days for consecutive 14 days. The tumor volumes and the body weights were recorded every two or three days after treatment. At the end of the administration period, the animals were euthanized by dislocation, and the tumor bulks were peeled off conforming to the Guide for the Animal use and Management of Shanghai Medicilon Biological Medicine Co. Ltd. The tumor volume was calculated according to the Principles of Non-clinical Research Techniques for Anti-tumor Drugs of Cytotoxic Drugs by China Food and Drug Administration.

[1] = 2 mg/kg iv, listed as Compound 15p
[2] = 4 mg/kg iv, listed as Compound 15p

C=CCn1cnc(/C=c2\[nH]c(=O)/c(=C/c3cccc(C(=O)c4ccc(F)cc4)c3)[nH]c2=O)c1C(C)C [15p]
Tumor Volume (D15) (2 mg/kg iv): 1453.6 mm^3
Tumor Volume (D15) [1]: 1453.6 ± 909.5 mm^3
Tumor Volume (D1) (2 mg/kg iv): 103.7 ± 29.99 mm^3
Tumor Weight (2 mg/kg iv): 0.82 g
Tumor Weight [1]: 0.82 ± 0.47 g
IR (tumor weight inhibition rate) (2 mg/kg iv): 27.6%
Tumor Volume (D15) (4 mg/kg iv): 674.5 mm^3
Tumor Volume (D15) [2]: 674.5 ± 274.0* mm^3
Tumor Volume (D1) (4 mg/kg iv): 102.2 ± 28.62 mm^3
Tumor Weight (4 mg/kg iv): 0.39 g
Tumor Weight [2]: 0.39 ± 0.22 g
IR (tumor weight inhibition rate) (4 mg/kg iv): 65%
IR (tumor weight inhibition rate) [2]: 65.2%
